IC50 and melting point data for 52 compounds are collected here from patent US20110124666A1, “3,4-DIHYDROPYRIMIDINE TRPA1 ANTAGONISTS” (Janssen Pharmaceutica NV a corporation, priority 2008, published 2011).

One series deals with T1, hTRPA1 (Homo sapiens, UniProt O75762).
T1 construct: expressed in transfected cells
T1 sequence (O75762 whole entry): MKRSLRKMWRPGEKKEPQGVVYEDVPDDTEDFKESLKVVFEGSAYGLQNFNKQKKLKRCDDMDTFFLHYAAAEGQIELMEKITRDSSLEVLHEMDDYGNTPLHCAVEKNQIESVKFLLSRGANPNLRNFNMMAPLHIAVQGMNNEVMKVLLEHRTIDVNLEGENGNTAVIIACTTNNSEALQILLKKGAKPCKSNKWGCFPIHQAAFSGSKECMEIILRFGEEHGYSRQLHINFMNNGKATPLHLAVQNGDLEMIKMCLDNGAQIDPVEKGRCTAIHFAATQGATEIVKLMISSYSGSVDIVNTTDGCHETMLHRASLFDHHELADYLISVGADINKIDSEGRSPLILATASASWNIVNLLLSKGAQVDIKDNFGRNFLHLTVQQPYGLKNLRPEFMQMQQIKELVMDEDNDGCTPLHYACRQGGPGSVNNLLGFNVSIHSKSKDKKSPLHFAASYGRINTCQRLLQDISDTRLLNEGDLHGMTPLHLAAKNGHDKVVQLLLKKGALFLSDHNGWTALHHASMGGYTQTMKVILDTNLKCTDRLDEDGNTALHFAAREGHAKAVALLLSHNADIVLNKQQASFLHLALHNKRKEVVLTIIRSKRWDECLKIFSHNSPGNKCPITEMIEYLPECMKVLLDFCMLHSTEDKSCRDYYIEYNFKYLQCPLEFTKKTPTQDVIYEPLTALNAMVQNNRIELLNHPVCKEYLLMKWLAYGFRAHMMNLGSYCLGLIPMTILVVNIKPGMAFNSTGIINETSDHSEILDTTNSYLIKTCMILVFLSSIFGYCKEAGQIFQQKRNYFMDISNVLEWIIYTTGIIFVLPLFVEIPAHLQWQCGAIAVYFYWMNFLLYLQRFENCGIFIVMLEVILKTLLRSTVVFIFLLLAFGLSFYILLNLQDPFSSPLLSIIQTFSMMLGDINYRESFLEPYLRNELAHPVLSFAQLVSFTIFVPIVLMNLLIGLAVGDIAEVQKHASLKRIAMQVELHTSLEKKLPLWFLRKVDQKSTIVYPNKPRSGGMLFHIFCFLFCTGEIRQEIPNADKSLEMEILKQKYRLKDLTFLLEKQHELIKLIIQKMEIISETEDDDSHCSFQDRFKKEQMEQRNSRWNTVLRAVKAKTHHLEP
In words: Ca2+ fluorometry TRPA1 antagonism in hTRPA1/TREx-HEK293 cells (FDSS). To be noted: 11H-dibenzo[b,e]azepine-10-carboxylic acid methyl ester as TRPA1 agonist (25 nM), hTRPA1-HEK cells, Fluo4-AM. Format: cell-based. From the text:
The Human TRPA1 gene was cloned into the pT-REx-Dest30 inducible vector and afterwards stably transfected in T-Rex^TM-293 cells (purchased from Invitrogen, Merelbeke, Belgium). This tetracyclin inducible hTRPA1 expression system was used in order to prevent Ca^2+ overload in the cultured cells due to sustained TRPA1 expression. hTRPAl/TREx-HEK293 cells (referred to as hTRPA1 cells in the following text) were maintained under standard sterile cell culture conditions.
Binding of an agonist to the TRPA1 ion-channel activates and opens the ion-channel which causes a robust increase in intracellular Ca^2+ concentration. For detecting and measuring intracellular Ca^2+ concentration, cells were loaded with a Ca^2+-sensitive dye. Changes in fluorescence in the cell, that correspond to changes in Ca^2+ concentration in the cell, can kinetically be monitored with the FDSS instrument (Hamamatsu) and are indicative for agonism towards the TRPA1 ion channel and this can be reduced by TRPA1-receptor antagonists.
The cells were seeded in poly-D-lysine-coated 384-well round bottom polypropylene plates (Costar Corning, Data Packaging, Cambridge Mass., USA) at 12000 cells/well. 50 ng/ml tetracycline was added to induce the hTRPA1 expression 24 h before the experiment.
The cells were loaded with 5 mg/l Fluo4-AM (Molecular Probes, Invitrogen, Merelbeke, Belgium) dissolved in HBSS seeding medium supplemented with 0.7 g/l Probenecid (Sigma) and incubated for 1 h at 37° C. and subsequently at 20° C. for 1 to 2 h. The fluorescence was measured in the FDSS 6000 imaging based plate reader (Hamamutsu Photonics K.K., Hamamutsu City, Japan). The excitation wavelength was 488 nm and the emission wavelength 540 nm. After a control period of 12 seconds the JNJ compounds were added and the Ca^2+ signal was measured within 14 minutes after application. Finally, the control TRPA1 agonist 11H-dibenzo[b,e]azepine-10-carboxylic acid methyl ester [the synthesis of which is hereafter described as compound (D-6)] or BITC (benzylisothiocyanate, FLUKA) was added at a final concentration of 25 nM. […] The emission ratio was calculated by dividing the emission signal (Em540) by the first Em540 signal of the control period to compensate for the background fluorescence. On every 384 well plate 4 series of DMSO control experiments were performed of which 2 with and 2 without control agonist 11H-dibenzo[b,e]azepine-10-carboxylic acid methyl ester or BITC. For intracellular Ca^2+ measurements compound stock solutions (10 or 100 mM) were further diluted in DMSO in order to obtain finally 1% DMSO in the extracellular solution.
Turning to `COc1cccc(C2NC(=S)NC3=C2C(=O)c2ccccc23)c1` (stereo not shown) [compound 1], the IC50 was around 128 nM. The same measure, in the same setting: as for `COc1cccc([C@H]2NC(=S)NC3=C2C(=O)c2ccccc23)c1` [compound 2], the figure is around 76 nM. Same read-out and setting: the figure for `COc1cccc([C@@H]2NC(=S)NC3=C2C(=O)c2ccccc23)c1` [compound 3] is above 10000 nM; for `COc1cccc(C2NC(=O)N(Cc3ccccc3)C3=C2C(=O)c2ccccc23)c1` (stereo not shown) [compound 4] it is around 6030 nM; for `COc1cc(OC)cc(C2NC(=S)NC3=C2C(=O)c2ccccc23)c1` (stereo not shown) [compound 5] it is around 2780 nM. Same read-out and setting: as for `O=C1C2=C(NC(=S)NC2c2cccc(O)c2)c2ccccc21` (stereo not shown) [compound 6], the figure is around 636 nM; as for `COCCCOc1cccc(C2NC(=S)NC3=C2C(=O)c2ccccc23)c1` (stereo not shown) [compound 7], 47 nM; as for `O=C1C2=C(NC(=S)NC2c2cccc(F)c2)c2ccccc21` (stereo not shown) [compound 8], around 1060 nM.

`COc1cccc(C2NC(=S)NC3=C2C(=O)c2ccccc23)c1OC` (stereo not shown) [compound 9] gave an IC50 above 10000 nM. In turn, `COc1ccc(F)c(C2NC(=S)NC3=C2C(=O)c2ccccc23)c1` (stereo not shown) [compound 10] had an IC50 of around 365 nM. On to `O=C1C2=C(NC(=S)NC2c2cccc(Br)c2)c2ccccc21` (stereo not shown) [compound 11], for which the IC50 was found to be 495 nM. Still for that read-out and setting: as for `O=C1C2=C(NC(=S)NC2c2cccc3c2OCO3)c2ccccc21` (stereo not shown) [compound 12], the figure is around 4410 nM; as for `O=C1C2=C(NC(=S)NC2c2cccc(OCCO)c2)c2ccccc21` (stereo not shown) [compound 13], 213 nM. With `O=C1C2=C(NC(=S)NC2c2cccc(CO)c2)c2ccccc21` (stereo not shown) [compound 14], the IC50 is around 708 nM.

`COc1ccc(OC)c(C2NC(=S)NC3=C2C(=O)c2ccccc23)c1` (stereo not shown) [compound 15]: the IC50 was above 10000 nM. On the same count and under the same terms, the figure for `COc1cccc(C2NC(=S)NC3=C2C(=O)c2ccccc23)c1F` (stereo not shown) [compound 16] is around 287 nM.

In turn, `COCCCOc1cccc([C@H]2NC(=O)NC3=C2C(=O)c2ccccc23)c1` [compound 18] yielded a half-maximal inhibitory concentration (IC50) of 1320 nM. On the same count and under the same terms, the figure for `COCCCOc1cccc([C@@H]2NC(=O)NC3=C2C(=O)c2ccccc23)c1` [compound 19] is above 10000 nM. The compound `CCCCOc1cccc(C2NC(=S)NC3=C2C(=O)c2ccccc23)c1` (stereo not shown) [compound 21] returned a half-inhibitory concentration (IC50) of 314 nM. On the same count and under the same terms, as for `CCN(CC)CCOc1cccc(C2NC(=S)NC3=C2C(=O)c2ccccc23)c1` (stereo not shown) [compound 22], the figure is 1200 nM.

As for `O=C1C2=C(NC(=S)NC2c2cccc(OCCCOc3ccc(F)cc3)c2)c2ccccc21` (stereo not shown) [compound 23], the concentration for half-maximal inhibition (IC50) was 4860 nM.

Turning to `O=C1C2=C(NC(=S)NC2c2cccc(OCCCCO)c2)c2ccccc21` (stereo not shown) [compound 25], the half-inhibitory concentration (IC50) is around 685 nM. On the same count and under the same terms, the figure for `CC(=O)OCCCCOc1cccc(C2NC(=S)NC3=C2C(=O)c2ccccc23)c1` (stereo not shown) [compound 26] is 557 nM. On to `COc1cccc(C2C3=C(NC(=S)N2C)c2ccccc2C3=O)c1` (stereo not shown) [compound 27], for which the IC50 is above 10000 nM. The same measure, in the same setting: the figure for `COc1cccc(C2NC(=S)N(C)C3=C2C(=O)c2ccccc23)c1` (stereo not shown) [compound 28] is around 85 nM; for `COCCCOc1cccc([C@H]2NC(=S)NC3=C2C(=O)c2ccccc23)c1` [compound 29] it is around 13 nM. On the same count and under the same terms, the figure for `COCCCOc1cccc([C@@H]2NC(=S)NC3=C2C(=O)c2ccccc23)c1` [compound 30] is above 10000 nM; for `O=C1C2=C(NC(=S)NC2c2cccc(-c3ccc(C(F)(F)F)cc3)c2)c2ccccc21` (stereo not shown) [compound 31] it is above 10000 nM.

`O=C1C2=C(NC(=S)NC2c2cncc(Br)c2)c2ccccc21` (stereo not shown) [compound 32]: the IC50 is 1670 nM.

System in the next series: not given
Assay: not given
Conditions: not given
With `O=C1C2=C(NC(=S)NC2c2cncc(Br)c2)c2ccccc21` (stereo not shown), the melting point was 294.61 °C. As for `COc1cccc(C2NC(=S)NC3=C2C(=O)c2ccccc23)c1` (stereo not shown) [Co. No. 1], the melting point amounted to 295.22 °C. On the same count and under the same terms, as for `COc1cccc([C@H]2NC(=S)NC3=C2C(=O)c2ccccc23)c1` [Co. No. 2], the figure is 252.73 °C; as for `COc1cccc([C@@H]2NC(=S)NC3=C2C(=O)c2ccccc23)c1` [Co. No. 3], 253.6 °C; as for `COc1cccc(C2NC(=O)N(Cc3ccccc3)C3=C2C(=O)c2ccccc23)c1` (stereo not shown) [Co. No. 4], 188.65 °C.

As to `COc1cc(OC)cc(C2NC(=S)NC3=C2C(=O)c2ccccc23)c1` (stereo not shown) [Co. No. 5], the melting point was found to be 287.08 °C.

Compound `O=C1C2=C(NC(=S)NC2c2cccc(O)c2)c2ccccc21` (stereo not shown) [Co. No. 6] showed a melting point of 288.04 °C. Still for that read-out and setting: as for `COc1ccc(F)c(C2NC(=S)NC3=C2C(=O)c2ccccc23)c1` (stereo not shown) [Co. No. 10], the figure is 289.27 °C. The same measure, in the same setting: as for `O=C1C2=C(NC(=S)NC2c2cccc3c2OCO3)c2ccccc21` (stereo not shown) [Co. No. 12], the figure is 289.34 °C; as for `O=C1C2=C(NC(=S)NC2c2cccc(OCCO)c2)c2ccccc21` (stereo not shown) [Co. No. 13], 261.08 °C; as for `O=C1C2=C(NC(=S)NC2c2cccc(CO)c2)c2ccccc21` (stereo not shown) [Co. No. 14], 265.63 °C. The same measure, in the same setting: the figure for `COc1ccc(OC)c(C2NC(=S)NC3=C2C(=O)c2ccccc23)c1` (stereo not shown) [Co. No. 15] is 295.33 °C. `COc1cccc(C2NC(=S)NC3=C2C(=O)c2ccccc23)c1F` (stereo not shown) [Co. No. 16] gave a melting point of 287.05 °C. Same read-out and setting: as for `COCCCOc1cccc([C@H]2NC(=O)NC3=C2C(=O)c2ccccc23)c1` [Co. No. 18], the figure is 206.47 °C; as for `COCCCOc1cccc([C@@H]2NC(=O)NC3=C2C(=O)c2ccccc23)c1` [Co. No. 19], 207.44 °C; as for `COc1ccc(Oc2cccc(C3NC(=S)NC4=C3C(=O)c3ccccc34)c2)cc1` (stereo not shown) [Co. No. 20], 269.04 °C. For the compound `CCN(CC)CCOc1cccc(C2NC(=S)NC3=C2C(=O)c2ccccc23)c1` (stereo not shown) [Co. No. 22], the melting point is 243.58 °C.

Compound `O=C1C2=C(NC(=S)NC2c2cccc(OCCCOc3ccc(F)cc3)c2)c2ccccc21` (stereo not shown) [Co. No. 23] came in with a melting point of 245.01 °C. On the same count and under the same terms, as for `CN(C)CCCOc1cccc(C2NC(=S)NC3=C2C(=O)c2ccccc23)c1` (stereo not shown) [Co. No. 24], the figure is 237.9 °C. As for `O=C1C2=C(NC(=S)NC2c2cccc(OCCCCO)c2)c2ccccc21` (stereo not shown) [Co. No. 25], the melting point is 224.49 °C. Still for that read-out and setting: as for `CC(=O)OCCCCOc1cccc(C2NC(=S)NC3=C2C(=O)c2ccccc23)c1` (stereo not shown) [Co. No. 26], the figure is 199.5 °C.

Regarding `COc1cccc(C2C3=C(NC(=S)N2C)c2ccccc2C3=O)c1` (stereo not shown) [Co. No. 27], the melting point was found to be 286.94 °C. On the same count and under the same terms, the figure for `O=C1C2=C(NC(=S)NC2c2cccc(-c3ccc(C(F)(F)F)cc3)c2)c2ccccc21` (stereo not shown) [Co. No. 31] is 149.46 °C.
